# From ChEMBL document CHEMBL1201862, “PubChem BioAssay data set” (2004)
#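 The compound was tested at five concentrations on cells cultured in 96-well plates, with a 48-hour exposure period. GI50 = concentration required for 50% inhibition of growth.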 Active and inactive are the calls of the source. No stated cut-off is given here; in the data, active = GI50 up to about 1.1 µM and inactive = higher.
# How the values were obtained:
# Test in all cases: NCI anticancer screen, dose series, 48 h
# HCC 2998 = test system: HCC 2998
# MCF7 = test system: MCF7
# LOX IMVI = test system: LOX IMVI
# Malme-3M = test system: Malme-3M
# SK-MEL-5 = test system: SK-MEL-5
# DU-145 = test system: DU-145
# RXF 393 = test system: RXF 393
# K562 = test system: K562
# NCI-H522 = test system: NCI-H522
# UO-31 = test system: UO-31
# HCT-15 = test system: HCT-15
# OVCAR-5 = test system: OVCAR-5
# HCT-116 = test system: HCT-116
# COLO 205 = test system: COLO 205
# KM12 = test system: KM12
# CCRF-CEM = test system: CCRF-CEM
# NCI-H23 = test system: NCI-H23
# UACC-62 = test system: UACC-62
# IGROV-1 = test system: IGROV-1
# SW-620 = test system: SW-620
# CAKI-1 = test system: CAKI-1
# SK-MEL-28 = test system: SK-MEL-28
# SF-539 = test system: SF-539
# A549 = test system: A549
# RPMI-8226 = test system: RPMI-8226
# PC-3 = test system: PC-3
# TK-10 = test system: TK-10
# UACC-257 = test system: UACC-257
# NCI/ADR-RES = test system: NCI/ADR-RES
# SK-OV-3 = test system: SK-OV-3
# OVCAR-3 = test system: OVCAR-3
# HOP-62 = test system: HOP-62
# HT-29 = test system: HT-29
# MDA-N = test system: MDA-N
# 786-0 = test system: 786-0
# MOLT-4 = test system: MOLT-4
# MDA-MB-231 = test system: MDA-MB-231
# U-251 = test system: U-251
# SF-295 = test system: SF-295
# HL-60 = test system: HL-60
# T47D = test system: T47D
# SF-268 = test system: SF-268
# ACHN = test system: ACHN
# NCI-H460 = test system: NCI-H460
# HOP-92 = test system: HOP-92
# OVCAR-8 = test system: OVCAR-8
# Hs-578T = test system: Hs-578T
# SR = test system: SR
# EKVX = test system: EKVX
# BT-549 = test system: BT-549
# SNB-19 = test system: SNB-19
# A498 = test system: A498
# SK-MEL-2 = test system: SK-MEL-2
# SN12C = test system: SN12C
# SNB-75 = test system: SNB-75
# MDA-MB-435 = test system: MDA-MB-435
# M14 = test system: M14
# NCI-H226 = test system: NCI-H226
# OVCAR-4 = test system: OVCAR-4
structure (smiles),measurement,setting,value
COC(=O)C1(C)CCc2c(ccc3ccccc23)C1=O (stereo not given),GI50,HCC 2998,36.1 µM (inactive)
same,GI50,MCF7,30.6 µM (inactive)
same,GI50,LOX IMVI,36.1 µM (inactive)
same,GI50,Malme-3M,27.8 µM (inactive)
same,GI50,SK-MEL-5,18.3 µM (inactive)
same,GI50,DU-145,51.9 µM (inactive)
same,GI50,RXF 393,25 µM (inactive)
same,GI50,K562,52.4 µM (inactive)
same,GI50,NCI-H522,24.9 µM (inactive)
same,GI50,UO-31,33.3 µM (inactive)
same,GI50,HCT-15,34.5 µM
same,GI50,OVCAR-5,> 100 µM (inactive)
same,GI50,HCT-116,33.7 µM (inactive)
same,GI50,COLO 205,21.3 µM (inactive)
same,GI50,KM12,25.8 µM (inactive)
same,GI50,CCRF-CEM,37.3 µM (inactive)
same,GI50,NCI-H23,51.6 µM (inactive)
same,GI50,UACC-62,32.4 µM (inactive)
same,GI50,IGROV-1,26.5 µM (inactive)
same,GI50,SW-620,39 µM (inactive)
same,GI50,CAKI-1,16.1 µM (inactive)
same,GI50,SK-MEL-28,64.7 µM (inactive)
same,GI50,SF-539,86.7 µM (inactive)
same,GI50,A549,39.3 µM (inactive)
same,GI50,RPMI-8226,23.2 µM (inactive)
same,GI50,PC-3,40.9 µM (inactive)
same,GI50,TK-10,31 µM (inactive)
same,GI50,UACC-257,24.5 µM (inactive)
same,GI50,NCI/ADR-RES,34.8 µM (inactive)
same,GI50,SK-OV-3,71.1 µM (inactive)
same,GI50,OVCAR-3,30.1 µM (inactive)
same,GI50,HOP-62,78.7 µM (inactive)
same,GI50,HT-29,40.2 µM (inactive)
same,GI50,MDA-N,27 µM (inactive)
same,GI50,786-0,65 µM (inactive)
same,GI50,MOLT-4,34.8 µM (inactive)
same,GI50,MDA-MB-231,49.1 µM (inactive)
same,GI50,U-251,46.5 µM (inactive)
same,GI50,SF-295,39.7 µM (inactive)
same,GI50,HL-60,35.9 µM (inactive)
same,GI50,T47D,24.5 µM (inactive)
same,GI50,SF-268,32.1 µM (inactive)
same,GI50,ACHN,55.1 µM (inactive)
same,GI50,NCI-H460,40.5 µM (inactive)
same,GI50,HOP-92,45.4 µM (inactive)
same,GI50,OVCAR-8,40.1 µM (inactive)
same,GI50,Hs-578T,47.2 µM (inactive)
same,GI50,SR,39.4 µM (inactive)
same,GI50,EKVX,31.8 µM (inactive)
same,GI50,BT-549,27.1 µM (inactive)
same,GI50,SNB-19,45.2 µM (inactive)
same,GI50,A498,32.7 µM (inactive)
same,GI50,SK-MEL-2,26.8 µM (inactive)
same,GI50,SN12C,44.7 µM (inactive)
same,GI50,SNB-75,44.8 µM (inactive)
same,GI50,MDA-MB-435,34.4 µM (inactive)
same,GI50,M14,29.9 µM (inactive)
CN(CCNC(=O)c1cn(C)c2c1ccc1cc(Cl)ccc12)CCNC(=O)c1cn(C)c2c1ccc1cc(Cl)ccc12,GI50,HCC 2998,1.49 µM (inactive)
same,GI50,MCF7,1.86 µM (inactive)
same,GI50,LOX IMVI,5.71 µM (inactive)
same,GI50,Malme-3M,2.21 µM (inactive)
same,GI50,SK-MEL-5,10.9 µM (inactive)
same,GI50,DU-145,1.73 µM (inactive)
same,GI50,RXF 393,1.57 µM (inactive)
same,GI50,K562,5.96 µM (inactive)
same,GI50,NCI-H522,1.85 µM (inactive)
same,GI50,UO-31,1.53 µM (inactive)
same,GI50,NCI-H226,25.9 µM (inactive)
same,GI50,HCT-15,1.78 µM
same,GI50,OVCAR-5,1.97 µM (inactive)
same,GI50,HCT-116,1.71 µM (inactive)
same,GI50,COLO 205,1.2 µM (inactive)
same,GI50,KM12,1.67 µM (inactive)
same,GI50,OVCAR-4,1.66 µM (inactive)
same,GI50,CCRF-CEM,5.74 µM (inactive)
same,GI50,NCI-H23,2.01 µM (inactive)
same,GI50,UACC-62,5.97 µM (inactive)
same,GI50,IGROV-1,3.57 µM (inactive)
same,GI50,SW-620,5.28 µM (inactive)
same,GI50,CAKI-1,1.6 µM (inactive)
same,GI50,SK-MEL-28,5.85 µM (inactive)
same,GI50,SF-539,4.78 µM (inactive)
same,GI50,A549,1.92 µM (inactive)
same,GI50,PC-3,5.5 µM (inactive)
same,GI50,TK-10,7.13 µM (inactive)
same,GI50,UACC-257,6.38 µM (inactive)
same,GI50,NCI/ADR-RES,2.05 µM (inactive)
same,GI50,SK-OV-3,1.56 µM (inactive)
same,GI50,OVCAR-3,2.4 µM (inactive)
same,GI50,HOP-62,1.79 µM (inactive)
same,GI50,HT-29,1.93 µM (inactive)
same,GI50,MDA-N,1.95 µM (inactive)
same,GI50,786-0,1.99 µM (inactive)
same,GI50,MOLT-4,5.01 µM (inactive)
same,GI50,MDA-MB-231,6.62 µM (inactive)
same,GI50,U-251,7.59 µM (inactive)
same,GI50,SF-295,1.86 µM (inactive)
same,GI50,HL-60,3.26 µM (inactive)
same,GI50,T47D,2.13 µM (inactive)
same,GI50,SF-268,1.77 µM (inactive)
same,GI50,ACHN,5.25 µM (inactive)
same,GI50,NCI-H460,3.24 µM (inactive)
same,GI50,HOP-92,5.85 µM (inactive)
same,GI50,OVCAR-8,6 µM (inactive)
same,GI50,Hs-578T,1.94 µM (inactive)
same,GI50,SR,5.11 µM (inactive)
same,GI50,EKVX,1.94 µM (inactive)
same,GI50,BT-549,3.43 µM (inactive)
same,GI50,SNB-19,1.83 µM (inactive)
same,GI50,A498,3.71 µM (inactive)
same,GI50,SK-MEL-2,6.92 µM (inactive)
same,GI50,SN12C,1.78 µM (inactive)
same,GI50,SNB-75,1.68 µM (inactive)
same,GI50,MDA-MB-435,1.44 µM (inactive)
same,GI50,M14,1.59 µM (inactive)
